# Results as given in article PMC12136037, “Type II kinase inhibitors that target Parkinson’s disease–associated LRRK2” (Science Advances, 2025).
# Read-outs that look alike come from different tables or passages of the source.
# Legend:
# Experiment in all cases: DSF 100 kinase selectivity screen;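 as to dTm: compound tested at 20 µM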
# Format in all cases: binding
# [1] = target: T1, ~100 representative kinases (Homo sapiens, UniProt P33981); conditions: Protein TTK; DSF; average of three replicates
# T1 construct: Recombinant protein kinase domains with a concentration of 2 μM
# T1 sequence (P33981 1-857): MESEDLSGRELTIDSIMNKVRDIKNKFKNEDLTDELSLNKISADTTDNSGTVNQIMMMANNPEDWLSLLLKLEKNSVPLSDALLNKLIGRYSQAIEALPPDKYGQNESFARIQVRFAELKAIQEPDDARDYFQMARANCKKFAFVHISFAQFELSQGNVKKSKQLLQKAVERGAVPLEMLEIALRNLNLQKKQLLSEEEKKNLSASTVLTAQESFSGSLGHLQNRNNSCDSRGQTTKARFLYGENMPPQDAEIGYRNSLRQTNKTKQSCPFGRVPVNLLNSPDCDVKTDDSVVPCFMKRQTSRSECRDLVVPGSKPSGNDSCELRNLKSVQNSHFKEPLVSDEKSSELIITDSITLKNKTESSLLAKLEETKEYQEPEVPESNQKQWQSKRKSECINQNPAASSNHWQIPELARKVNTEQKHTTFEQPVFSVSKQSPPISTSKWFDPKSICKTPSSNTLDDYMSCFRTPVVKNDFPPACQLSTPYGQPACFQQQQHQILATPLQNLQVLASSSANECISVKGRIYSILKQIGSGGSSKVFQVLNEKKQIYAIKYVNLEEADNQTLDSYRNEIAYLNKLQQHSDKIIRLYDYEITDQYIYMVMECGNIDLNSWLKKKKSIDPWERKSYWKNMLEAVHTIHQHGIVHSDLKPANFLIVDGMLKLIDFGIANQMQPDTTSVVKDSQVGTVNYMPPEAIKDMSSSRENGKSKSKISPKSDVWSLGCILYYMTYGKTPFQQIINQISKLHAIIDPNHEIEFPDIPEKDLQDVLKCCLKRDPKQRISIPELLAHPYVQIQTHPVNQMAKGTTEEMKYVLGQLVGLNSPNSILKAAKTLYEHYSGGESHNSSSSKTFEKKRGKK
# Method in brief: (§1)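 Each kinase domain, at 2 μM, is mixed with 20 μM test compound and SYPRO Orange in Hepes (20 mM, pH 7.5) with 500 mM NaCl. Temperature is then raised at 3°C/min and fluorescence-monitored unfolding yields the melting temperature change, ΔTm in degrees Celsius.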
# [2] = test system: ~100 representative kinases; conditions: for dTm: Protein BRD, average of three replicates
# Method in brief: as §1
# [3] = target: T2, ~100 representative kinases (Homo sapiens, UniProt Q15375); conditions: Protein EPHA7; average of three replicates
# T2 construct: Recombinant protein kinase domains with a concentration of 2 μM
# Method in brief: as §1
# [4] = target: T3, ~100 representative kinases (Homo sapiens, UniProt O15264); conditions: protein MAPK13; average of three replicates
# T3 construct: Recombinant protein kinase domains with a concentration of 2 μM
# T3 sequence (O15264 1-365): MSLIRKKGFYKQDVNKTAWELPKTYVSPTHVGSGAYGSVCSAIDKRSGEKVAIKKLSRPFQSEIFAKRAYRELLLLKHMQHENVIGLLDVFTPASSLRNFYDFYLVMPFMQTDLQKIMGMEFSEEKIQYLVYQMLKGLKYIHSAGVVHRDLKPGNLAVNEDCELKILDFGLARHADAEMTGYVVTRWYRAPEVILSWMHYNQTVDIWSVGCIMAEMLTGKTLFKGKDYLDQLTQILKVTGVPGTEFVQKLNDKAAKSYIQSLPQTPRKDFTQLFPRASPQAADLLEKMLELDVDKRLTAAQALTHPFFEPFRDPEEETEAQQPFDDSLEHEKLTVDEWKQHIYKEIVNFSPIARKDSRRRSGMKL
# Method in brief: as §1
# [5] = target: T4, ~100 representative kinases (Homo sapiens, UniProt Q96NX5); conditions: Protein CAMK1G; average of three replicates
# T4 construct: Recombinant protein kinase domains with a concentration of 2 μM
# Method in brief: as §1
# [6] = target: T5, ~100 representative kinases (Homo sapiens, UniProt P54762); conditions: Protein EPHB1; average of three replicates
# T5 construct: Recombinant protein kinase domains with a concentration of 2 μM
# T5 sequence (P54762 18-984): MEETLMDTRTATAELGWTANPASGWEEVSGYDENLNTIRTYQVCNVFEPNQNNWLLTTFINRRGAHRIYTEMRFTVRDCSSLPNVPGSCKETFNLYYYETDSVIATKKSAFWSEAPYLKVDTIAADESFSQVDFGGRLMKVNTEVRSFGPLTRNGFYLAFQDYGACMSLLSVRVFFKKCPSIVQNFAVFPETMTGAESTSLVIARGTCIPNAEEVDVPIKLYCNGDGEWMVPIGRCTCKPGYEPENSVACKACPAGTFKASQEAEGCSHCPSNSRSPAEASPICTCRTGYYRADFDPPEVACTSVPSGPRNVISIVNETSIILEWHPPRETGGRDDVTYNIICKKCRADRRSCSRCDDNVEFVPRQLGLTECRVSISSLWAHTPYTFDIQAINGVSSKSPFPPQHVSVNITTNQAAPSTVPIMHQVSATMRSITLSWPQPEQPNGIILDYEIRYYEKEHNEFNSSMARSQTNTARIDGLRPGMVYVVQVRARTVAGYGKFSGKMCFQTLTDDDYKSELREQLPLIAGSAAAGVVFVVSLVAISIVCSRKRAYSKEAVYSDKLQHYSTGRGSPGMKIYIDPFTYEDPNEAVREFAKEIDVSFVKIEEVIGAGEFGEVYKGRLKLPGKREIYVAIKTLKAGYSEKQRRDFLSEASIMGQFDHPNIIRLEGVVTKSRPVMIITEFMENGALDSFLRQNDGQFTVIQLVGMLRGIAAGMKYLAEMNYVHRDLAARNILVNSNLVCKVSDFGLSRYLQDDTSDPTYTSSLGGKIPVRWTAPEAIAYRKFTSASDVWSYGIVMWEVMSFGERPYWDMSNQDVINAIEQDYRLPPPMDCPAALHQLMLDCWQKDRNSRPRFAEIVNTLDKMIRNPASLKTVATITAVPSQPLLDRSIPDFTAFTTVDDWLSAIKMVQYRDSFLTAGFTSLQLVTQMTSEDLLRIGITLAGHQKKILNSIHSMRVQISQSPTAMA
# Method in brief: as §1
# [7] = number of kinases with thermal shift >5 K divided by total number of kinases screened
# [8] = number of proteins of the DSF panel with dTm >5K
# [9] = selectivity score: # >5K divided by # of proteins tested in the DSF panel
# T2 sequence (Q15375 28-998): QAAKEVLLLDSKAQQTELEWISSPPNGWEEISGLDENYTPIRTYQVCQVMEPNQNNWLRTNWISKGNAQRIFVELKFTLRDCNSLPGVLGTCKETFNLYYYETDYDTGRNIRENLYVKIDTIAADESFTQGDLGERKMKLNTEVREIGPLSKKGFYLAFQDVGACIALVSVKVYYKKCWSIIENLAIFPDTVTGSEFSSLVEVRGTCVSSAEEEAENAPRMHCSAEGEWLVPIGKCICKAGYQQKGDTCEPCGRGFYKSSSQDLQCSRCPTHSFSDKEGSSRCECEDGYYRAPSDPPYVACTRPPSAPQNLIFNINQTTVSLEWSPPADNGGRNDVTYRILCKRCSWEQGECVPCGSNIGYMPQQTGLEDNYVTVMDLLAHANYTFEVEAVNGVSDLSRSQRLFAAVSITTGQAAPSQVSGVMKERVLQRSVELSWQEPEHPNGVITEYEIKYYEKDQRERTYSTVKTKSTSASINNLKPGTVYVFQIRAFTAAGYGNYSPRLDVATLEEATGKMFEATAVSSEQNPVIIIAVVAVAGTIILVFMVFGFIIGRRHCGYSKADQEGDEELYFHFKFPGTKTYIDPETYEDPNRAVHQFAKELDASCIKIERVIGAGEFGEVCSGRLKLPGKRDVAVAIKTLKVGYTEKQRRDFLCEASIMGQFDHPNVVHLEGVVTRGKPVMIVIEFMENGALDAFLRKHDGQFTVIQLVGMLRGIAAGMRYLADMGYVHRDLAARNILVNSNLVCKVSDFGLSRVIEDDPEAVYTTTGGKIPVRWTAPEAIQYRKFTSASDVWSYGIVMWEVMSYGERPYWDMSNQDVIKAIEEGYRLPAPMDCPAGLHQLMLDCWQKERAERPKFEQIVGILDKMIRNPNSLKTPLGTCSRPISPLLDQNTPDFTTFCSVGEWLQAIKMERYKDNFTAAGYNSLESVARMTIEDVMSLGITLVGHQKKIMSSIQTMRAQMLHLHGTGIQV
# T4 sequence (Q96NX5 whole entry, the tested form may be a part): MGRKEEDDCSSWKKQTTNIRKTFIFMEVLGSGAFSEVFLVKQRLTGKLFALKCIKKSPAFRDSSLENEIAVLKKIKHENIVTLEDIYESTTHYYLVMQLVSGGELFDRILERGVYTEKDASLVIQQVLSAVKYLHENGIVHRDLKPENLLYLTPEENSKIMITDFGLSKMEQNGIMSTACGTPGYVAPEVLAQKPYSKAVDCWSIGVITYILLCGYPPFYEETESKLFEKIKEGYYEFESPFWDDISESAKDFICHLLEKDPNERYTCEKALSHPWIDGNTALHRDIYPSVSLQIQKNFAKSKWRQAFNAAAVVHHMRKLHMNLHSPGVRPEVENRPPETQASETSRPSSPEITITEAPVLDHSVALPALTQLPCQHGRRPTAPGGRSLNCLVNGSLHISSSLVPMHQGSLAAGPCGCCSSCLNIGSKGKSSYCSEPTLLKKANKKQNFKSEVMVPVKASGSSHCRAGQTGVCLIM
dTm [1],dTm [2],"S(5K) [2, 7]","# >5K [2, 8]","S(5K) [2, 9]",dTm [3],dTm [4],dTm [5],dTm [6],"S (5 K) / share of screened kinases stabilized ([2]; DSF selectivity panel, thermal shift >5 K)",Structure (SMILES),# >5K [2],S(5K) [2]
8.62 K,-0.20 K,0.42,42,0.420,-0.92 K,13.05 K,2.80 K,4.46 K,,Cc1cc(NC(=O)C2(C(=O)Nc3cccc(-c4c[nH]c5ncnc(N6CCOCC6)c45)c3)CC2)ccc1F [Compound 20],,
1.71 K,-3.84 K,0.15,15,0.149,0.34 K,11.86 K,0.05 K,0.39 K,,CC(=O)N1CCN(c2nc(Cl)nc3[nH]cc(-c4cccc(NC(=O)Nc5cc(C(C)(C)C)nn5-c5ccc(C)cc5)c4)c23)CC1 [Compound 31],,
7.12 K,-0.35 K,0.26,26,0.260,-1.64 K,7.89 K,1.89 K,2.37 K,,O=C(Nc1ccccc1)C1(C(=O)Nc2cccc(-c3c[nH]c4ncnc(N5CCOCC5)c34)c2)CC1 [Compound 12],,
6.50 K,1.19 K,0.37,37,0.370,0.19 K,11.74 K,3.50 K,5.42 K,,O=C(Nc1ccc(Cl)cc1)C1(C(=O)Nc2cccc(-c3c[nH]c4ncnc(N5CCOCC5)c34)c2)CC1 [Compound 13],,
4.46 K,-2.22 K,0.36,36,0.356,2.68 K,18.71 K,3.88 K,5.08 K,,Cc1ccc(-n2nc(C(C)(C)C)cc2NC(=O)Nc2cccc(-c3c[nH]c4ncnc(N5CCOCC5)c34)c2)cc1 [Compound 29],,
9.93 K,1.82 K,0.31,32,0.308,2.85 K,11.96 K,5.35 K,1.85 K,,O=C(Nc1cccc(-c2c[nH]c3ncnc(N4CCOCC4)c23)c1)C1(C(=O)Nc2ccc(F)c(Br)c2)CC1 [Compound 19],,

# Further lines, the molecule ahead of its results:
Structure (SMILES),dTm [1],dTm [2],"S(5K) [2, 7]","# >5K [2, 8]","S(5K) [2, 9]",dTm [3],dTm [4],dTm [5],dTm [6],"S (5 K) / share of screened kinases stabilized ([2]; DSF selectivity panel, thermal shift >5 K)",# >5K [2],S(5K) [2]
CCNc1nc(Nc2cc(F)c(C(=O)N3CCOCC3)cc2OC)ncc1C(F)(F)F [GNE-7915],6.53 K,-0.21 K,,3,0.029,-0.20 K,0.51 K,0.32 K,0.07 K,,,
CC(C)(C)c1cccc(NC(=O)C2(C(=O)Nc3cccc(-c4c[nH]c5ncnc(N6CCOCC6)c45)c3)CC2)c1 [Compound 22],5.44 K,1.52 K,0.22,23,0.221,2.40 K,6.63 K,4.22 K,-3.38 K,,,
CN[C@@H]1C[C@H]2O[C@@](C)([C@@H]1OC)n1c3ccccc3c3c4c(c5c6ccccc6n2c5c31)C(=O)NC4 [Staurosporine],,,,,,12.09 K,8.03 K,,,,,
O=C(Nc1cccc(-c2c[nH]c3ncnc(N4CCOCC4)c23)c1)C1(C(=O)Nc2ccc(F)cc2F)CC1 [Compound 23],-5.86 K,-1.02 K,0.16,16,0.160,-2.29 K,7.48 K,1.64 K,2.11 K,16%,,
O=C(Nc1cc(F)cc(Br)c1)C1(C(=O)Nc2cccc(-c3c[nH]c4ncnc(N5CCOCC5)c34)c2)CC1 [Compound 27],4.57 K,1.43 K,0.09,9,0.087,2.33 K,4.18 K,3.15 K,-2.93 K,,,
"Cc1ccc(C(=O)Nc2ccc(CN3CCN(C)CC3)c(C(F)(F)F)c2)cc1C#Cc1cnc2[nH]ncc2c1 [GZD-824, reference compound]",4.08 K,-0.37 K,,,,1.51 K,6.08 K,0.14 K,14.98 K,,31,0.313
"CNC(=O)c1cc(Oc2ccc(NC(=O)Nc3cc(C(C)(C)C)nn3-c3ccc4ncccc4c3)c(F)c2)ccn1 [Rebastinib, reference compound]",8.07 K,,,,,3.35 K,13.29 K,,4.28 K,,,
"COc1cc2c(Oc3ccc(NC(=O)C4(C(=O)Nc5ccc(F)cc5)CC4)cc3F)ccnc2cc1OCCCN1CCOCC1 [Foretinib, reference compound]",2.21 K,,,,,-0.16 K,9.64 K,3.09 K,12.70 K,,30,0.300
Cc1ccc(NC(=O)C2(C(=O)Nc3cccc(-c4c[nH]c5ncnc(N6CCOCC6)c45)c3)CC2)cc1 [Compound 14],4.57 K,-1.11 K,0.22,22,0.220,-1.63 K,9.07 K,1.22 K,3.63 K,,,
"Cc1ccc(C(=O)Nc2ccc(CN3CCN(C)CC3)c(C(F)(F)F)c2)cc1C#Cc1cnc2cccnn12 [Ponatinib, reference compound]",,,,,,,,1.16 K,,,28,0.272
